Laboratory results as given in patent US20170065952A1, “PICKERING EMULSION FORMULATIONS” (THE UNIVERSITY OF BIRMINGHAM, priority 2014, published 2017).
Each block holds one compound with its values, some of them ahead of it.

Legend:
[1] = Release of lipophilic active B (DMP) from O/W emulsion by dialysis into external water, UV-Vis; format: physicochemical; conditions: O/W emulsion (tripalmitin particles 2J, WPI), after 2 days of storage
Protocol: Solid lipid particles were prepared according to Example 2J. Tripalmitin matrix contained lipophilic active A (Sudan III) and were stabilised in aqueous dispersion by WPI.
O/W emulsions were prepared according to Example 4. A model lipophilic active B (DMP-dimethyl phthalate) was added to the sunflower oil included phase.
Known quantity of the O/W emulsion (e.g. 10 g) was placed inside a pre-hydrated cellulose tube and dialysed to a known quantity of distilled water (e.g. 100 g), termed “external” water/aqueous phase. An aliquot (ca. 1 mL) of the external water was taken at time intervals, pressed through a syringe filter (0.2 μm pore size) and analysed using UV-Vis spectroscopy (at λ=290 nm). Using previously obtained calibration line and the partitioning (sunflower oil/water) data of DMP, the concentration of the released active B was calculated.

[2] = Release of lipophilic active (Sudan III) from W/O emulsion into external oil phase, UV-Vis; format: physicochemical; conditions: W/O emulsion Example 3C (tripalmitin particles 2C, Tween 20, sunflower oil continuous phase); burst release
Protocol: (§1) Solid lipid particles were prepared according to Example 2C. Tripalmitin particles contained the lipophilic active (Sudan III) and were stabilised in the aqueous dispersion by Tween™ 20. After preparation the excess surfactant was dialysed off to distilled water.

[3] = Release of lipophilic active A (Sudan III) from O/W emulsion into external oil phase, UV-Vis; format: physicochemical; conditions: O/W emulsion (tripalmitin particles 2J, WPI, sunflower oil), observation period of 4 days
Protocol: Known quantity of the O/W emulsion (e.g. 40 g) was placed in the beaker and gently topped up with a known quantity of sunflower oil (e.g. 50 g), termed “external” oil phase. An aliquot (ca. 1 mL) of the external oil phase was taken at time intervals, pressed through a syringe filter (0.2 μm pore size) and analysed using UV-Vis spectroscopy (at λ=510 nm). Using previously obtained calibration line, the concentration of the released active A was calculated.

[4] = Protocol: Known quantity of the W/O emulsion (e.g. 45 g) was gently placed on the top of a known quantity of distilled water (e.g. 70 g) termed “external” water/aqueous phase. Calibrated conductivity probe was placed in the external aqueous phase and readings were taken on daily intervals.
as §1
W/O emulsions were prepared according to Example 3C, 3D and 3E. Hydrophilic active (NaCl) was added to the aqueous included phase and sunflower or silicone or mineral oils were used as the continuous phase.
The release of NaCl was measured as per Example 5.

SMILES: COC(=O)c1ccccc1C(=O)OC [DMP, dimethyl phthalate]
release of active B from the dispersed sunflower oil phase [1]: 100%

time of storage to complete release of lipophilic active [2]: ≤ 10 h
release of active A from the lipid particles [3]: below 1%
SMILES: Oc1ccc2ccccc2c1N=Nc1ccc(N=Nc2ccccc2)cc1 [Sudan III]

SMILES: [Cl-].[Na+] [NaCl]
release of hydrophilic active to external water phase ([4]; W/O emulsion Example 3C, sunflower oil, over 17 days): very small
release of hydrophilic active upon heating ([4]; W/O emulsion, heating to 40° C., fat crystals at interface melt): all dispersed water phase with NaCl is delivered to the external water phase
release of the internal water phase with NaCl ([4]; water-in-mineral-oil emulsions (Example 3D), partially sintered particles): lower than for the non-sintered silicone oil emulsions and higher than the sintered sunflower oil emulsions
release of NaCl to external water phase ([4]; water-in-silicone-oil emulsions (Example 3E), non-sintered particles): Relatively high release
